Laboratory results as given in patent publication US20240050431A1, “NEUROENDOCRINE DIFFERENTIATION IN IMIPRIDONE CANCER TREATMENT” (BROWN UNIVERSITY, priority 2022, published 2024).

Legend:
DU145 [1] = test: Protein expression of TRAIL pathway proteins, DU145; assay type: cell-based; conditions: DU145 treated with ONC201 at IC50; 12, 24 and 48 hours
Description: FIGS. 2A-2C provide images showing NED marker expression in PC and SCLC.

22RV1 = test: Protein expression of TRAIL pathway proteins, 22RV1; assay type: cell-based; conditions: 22RV1 treated with ONC201 at IC50; 12, 24 and 48 hours
LNCaP = test: CellTiter-Glo (CTG) viability assay, LNCaP; assay type: cell-based; conditions: Homo sapiens, 72 h
DU145 [2] = test: CellTiter-Glo (CTG) viability assay, DU145; assay type: cell-based; conditions: Homo sapiens, DU-145, 72 h
PC3 = test: CellTiter-Glo (CTG) viability assay, PC3; assay type: cell-based; conditions: Homo sapiens, PC-3, 72 h
[3] = system: tumor cell lines (n=6) from prostate and small cell lung cancer tissues; test: CellTiter-Glo (CTG) viability assay, panel of tumor cell lines; conditions: 6 PC and SCLC cell lines; varying drug concentrations, 72 hours

**Q.** For `Cc1ccccc1CN1C(=O)C2=C(CCN(Cc3ccccc3)C2)N2CCN=C12` [ONC201], which ATF4 protein expression (DU145 [1]) is on record?
**A.** upregulation of ATF4 ISR pathway

**Q.** And the CLpX protein expression (DU145 [1])?
**A.** decreased CLpX expression

**Q.** What about the ATF4 protein expression (22RV1) of the same compound?
**A.** upregulation of ATF4 ISR pathway

**Q.** What about the CLpX protein expression (22RV1) of the same compound?
**A.** decreased CLpX expression

**Q.** And the IC50 (LNCaP)?
**A.** 1.33 µM

**Q.** And the IC50 (DU145 [2])?
**A.** 3.11 µM

**Q.** What about the IC50 (PC3) of the same compound?
**A.** 3.02 µM

**Q.** What about the “Sensitivity and cytotoxicity (viability)” value [3] of the same compound?
**A.** shows sensitivity and cytotoxicity to tumor cell lines
